Values after ≈ are worked out from the molar mass of the structure shown. Residues, ends and D or L forms follow the SMILES beside them.
Key:
[1] = system: S. aureus ATCC 29213; assay type: cell-based, Staphylococcus aureus
Text: (§1) Gram-negative bacterial strains, Escherichia coli ATCC 8739, Escherichia coli ATCC 35218, Escherichia coli ML 35p, Escherichia coli K12, Pseudomonas aeruginosa ATCC 27853, and Gram-positive bacterial strains, Enterococcus faecalis ATCC29212, Kocuria rhizophila ATCC 9341, Staphylococcus aureus ATCC 6538, Staphylococcus aureus ATCC 29213, Staphylococcus aureus ST 1065, Staphylococcus epidermidis BM 3302, and Bacillus subtilis subsp. subtilis CIP 52.65, as well as two multiresistant strains (Staphylococcus aureus DAR 5829 (http://www.ncbi.nlm.nih.gov/bioproject/228435) and Enterococcus faecium BM 4147 [20] were cultured as described previously. The minimal inhibitory concentration (MIC) of the peptides was determined by the microtiter broth dilution method. Overnight precultures were subcultured in Luria Bertani (LB) medium at 37°C with vigorous shaking until mid-log phase (~2h) and diluted to 10^7 cfu/mL. Peptide solutions were prepared at different concentrations (from 2 to 500 μM) by successive 2-fold dilutions in water from 1 mM stock solutions. In each row of a 96-well nonbinding surface plate, 90 μL of bacteria were incubated with 10 μL of peptide solutions for 18 h at 37°C. The final peptide concentrations ranged from 0.2 to 100 μM. Cell growth was evaluated by visual inspection and absorbance at 600 nm to determine the lowest concentration of peptide that prevented cell growth. Wells were either opaque, indicating stationary phase growth, or transparent indicating no growth. The lowest concentration showing no visible growth was considered as the MIC. After measurement of the MIC, the bactericidal activity was determined by the addition of resazurin dye (30 μL, 0.01% w/v) to each well [22]. The plates were further incubated at 37°C for 18 h. Wells in which the dye turned pink indicated live bacteria, whereas wells in which the dye remained blue indicated dead bacteria. The minimal bactericidal concentration (MBC) is the lowest concentration with blue coloration (99.9% of bacteria were killed). Three to five independent assays were performed in triplicate. Positive controls correspond to medium plus 0.2% formaldehyde and negative controls to medium without peptide.

[2] = system: S. aureus ST 1065; assay type: cell-based, Staphylococcus aureus
Text: as §1

[3] = system: S. aureus DAR 5829; assay type: cell-based, Staphylococcus aureus; settings: S. aureus DAR 5829, multi-resistant strain
Text: as §1

[4] = system: S. aureus ATCC 6538; assay type: cell-based, Staphylococcus aureus
Text: as §1

[5] = system: E. faecalis ATCC 29212; assay type: cell-based, Enterococcus faecalis
Text: as §1

[6] = system: S. epidermidis BM3302; assay type: cell-based, Staphylococcus epidermidis
Text: as §1

[7] = system: Ps. aeruginosa ATCC 27853; assay type: cell-based, Pseudomonas aeruginosa; settings: LB, 10^7 cfu/mL, 18 h at 37°C, peptide 0.2-100 μM, averaged over >=3 independent experiments in triplicate
Text: as §1, with “Wells were either opaque, indicating stationary phase growth, or transparent indicating no growth. The lowest concentration showing no visible growth was considered as the MIC. After measurement of the MIC, the bactericidal activity was determined by the addition of resazurin dye (30 μL, 0.01% w/v) to each well [22]. The plates were further incubated at 37°C for 18 h. Wells in which the dye turned pink indicated live bacteria, whereas wells in which the dye remained blue indicated dead bacteria. The minimal bactericidal concentration (MBC) is the lowest concentration with blue coloration (99.9% of bacteria were killed). Three to five independent assays were performed in triplicate. Positive controls correspond to medium plus 0.2% formaldehyde and negative controls to medium without peptide.” left out

[8] = system: K. rhizophila ATCC 9341; assay type: cell-based, Kocuria rhizophila
Text: as §1

[9] = system: A549 cells; experiment: Cytotoxicity, trypan blue exclusion; assay type: cell-based; settings: A549 human lung carcinoma cells, 2-hour incubation at 37°C, 5% CO2, concentrations as high as 100 μM; 3 independent experiments in triplicate
Description: A549 cells (ATCC CCL-185), a human lung carcinoma cell line, were cultivated at 37°C, humid atmosphere and 5% CO2, in Petri dishes with DMEM Advanced medium (Gibco) supplemented with 5% of fetal bovine serum (FBS), 2 mM of glutamine, 100 U of penicillin and 50 μg/mL of streptomycin (Gibco). When the cells reached 80% confluence, the medium was discarded and the cells were washed with PBS 1×, before being treated with Trypsin 1× for 2 minutes to detach them form the culture dish. Cells were then resuspended in DMEM medium, seeded in a 48-well culture plate (500 000 cells/well), and either form of DMS-DA6 solubilized in PBS 1× was added and incubated for 2 hours at 37°C, 5% CO2. DMSO 30% was used as a positive control to induce cell death, and DMEM medium as negative control. After incubation, cell viability was assessed by trypan blue exclusion.

[10] = system: B. subtilis CIP 52.65; assay type: cell-based, Bacillus subtilis subsp. subtilis
Text: as §1

[11] = system: S. aureus ST1065; experiment: Bacterial membrane permeabilization (ONPG hydrolysis); assay type: cell-based, Staphylococcus aureus; settings: S. aureus ST 1065, 2.5 mM ONPG, absorbance at 420 nm; two independent experiments in triplicate
Description: Membrane permeabilization was assessed by monitoring the hydrolysis of ortho-nitrophenyl β-D-galactopyranoside (ONPG) by the β-galactosidase enzyme, using the S. aureus ST1065 strain, specifically designed for membrane permeabilization assays, through detection of cytoplasmic β-galactosidase activity leakage. Bacteria were grown in LB to an absorbance of 0.5 at 600 nm, pelleted by centrifugation, and the pellets were washed twice with PBS. Pellets were then resuspended in 10% LB in PBS to an absorbance of 0.5 at 600 nm. Aliquots (15 μL) of bacterial suspension were mixed with 2.5 mM ONPG and incubated with various concentrations of peptide in a 96-well plate. The hydrolysis of ONPG was monitored by measuring the absorbance at 420 nm of released o-nitrophenol with a Fluostar Galaxy microplate reader (BMG LabTech, France).

[12] = system: E. coli ATCC 8739; assay type: cell-based, Escherichia coli
Text: as §1

[13] = system: E. coli K12; assay type: cell-based, Escherichia coli; settings: LB, 10^7 cfu/mL, 18 h at 37°C, peptide 0.2-100 μM, averaged over >=3 independent experiments in triplicate
Text: as §1

[14] = system: E. coli ML 35p; assay type: cell-based, Escherichia coli; settings: LB, 10^7 cfu/mL, 18 h at 37°C, peptide 0.2-100 μM, averaged over >=3 independent experiments in triplicate
Text: as §1

[15] = system: E. coli ATCC 35218; assay type: cell-based, Escherichia coli; settings: LB, 10^7 cfu/mL, 18 h at 37°C, peptide 0.2-100 μM, averaged over >=3 independent experiments in triplicate
Text: as §1

[16] = system: E. faecium BM 4147; assay type: cell-based, Enterococcus faecium; settings: E. faecium BM 4147, multi-resistant strain
Text: as §1

[17] = Circular dichroism, helical content with lipid vesicles; assay type: physicochemical; settings: CD, 10 mM phosphate buffer pH 7.4, 20 μM peptide, peptide/lipid molar ratio 1/50
Text: Lipid vesicles were formed using bacterial lipids extracted as described above or commercially available synthetic lipids. The lipids, 1-palmitoyl-2-oleoyl-sn-glycero-3-phosphocholine (POPC), 1-palmitoyl-2-oleoyl-sn-glycero-3-phospho-(1'-rac-glycerol) (POPG), 1,2-dimyristoyl-sn-glycero-3-phosphoglycerol (DMPG), 1.2-dioleyl-sn-glycero-3-phosphoglycerol (DOPG), and 1',3'-bis[1,2-dioleoyl-sn-glycero-3-phospho]-sn-glycerol (CL), were obtained from Avanti Polar Lipids, Inc (Alabaster, AL) and used without further purification. Desired mixtures of phospholipids were first dried in glass tubes under nitrogen and then maintained under a reduced pressure for at least 60 min. Lipid films were subsequently hydrated in PBS to yield a lipid concentration of 10 mg.mL^-1 for tryptophan fluorescence experiments, 1 mg.mL^-1 for DSC experiments, and in PB at 1 mM for CD experiments. The resulting dispersions of large multilamellar vesicles (MLVs) were subjected to 3 to 5 freeze-thaw cycles and then extruded 15 times through polycarbonate membranes (100 nm pore size, Whatman, Maidstone, UK) on an Avanti mini-extruder apparatus (Avanti Polar Lipids, Inc., Alabaster, AL) to generate large unilamellar vesicles (LUVs). Lipid vesicles were used either alone, or in combination with S. aureus peptidoglycan (PGN) (Sigma).
The CD spectra of the peptides were recorded as previously described. […]

[18] = LB, 10^7 cfu/mL, 18 h at 37°C, averaged over >=3 independent experiments in triplicate
[19] = resazurin dye added after MIC, further 18 h at 37°C, 99.9% killed, averaged over >=3 experiments in triplicate

**Q.** Which results are given for `CC[C@H](C)[C@H](NC(=O)CNC(=O)[C@H](Cc1c[nH]c2ccccc12)NC(=O)[C@@H](NC(=O)CN)C(C)C)C(=O)N[C@@H](C)C(=O)N[C@@H](CCCCN)C(=O)N[C@H](C(=O)N[C@@H](C)C(=O)NCC(=O)N[C@@H](CCCCN)C(=O)N[C@H](C(=O)N[C@@H](CC(C)C)C(=O)NCC(=O)N[C@@H](CC(N)=O)C(=O)N[C@H](C(=O)N[C@@H](CC(C)C)C(=O)N1CCC[C@H]1C(=O)N[C@@H](Cc1c[nH]cn1)C(=O)N[C@H](C(=O)N[C@@H](Cc1ccccc1)C(=O)N[C@@H](CO)C(=O)N[C@@H](CO)C(=O)N[C@@H](CC(N)=O)C(=O)N[C@@H](CCC(N)=O)C(=O)N[C@@H](CO)C(N)=O)C(C)C)[C@@H](C)CC)C(C)C)[C@@H](C)CC` [DMS-DA6-NH2] (H-GVWGIAKIAGKVLGNILPHVFSSNQS-NH2)?
**A.** MIC [1, 18]: 3.12 µM (≈ 8.4 µg/mL); MBC [1, 19]: 6.25 µM (≈ 16.8 µg/mL); MIC [2, 18]: 12.5 µM (≈ 33.7 µg/mL); MBC [2, 19]: 12.5 µM (≈ 33.7 µg/mL); MIC [3, 18]: 25 µM (≈ 67.3 µg/mL); MBC [3, 19]: 50 µM (≈ 135 µg/mL); MIC [4, 18]: 6.25 µM (≈ 16.8 µg/mL); MBC [4, 19]: 6.25 µM (≈ 16.8 µg/mL); MIC [5, 18]: 50 µM (≈ 135 µg/mL); MBC [5, 19]: 50 µM (≈ 135 µg/mL); MIC [6, 18]: 12.5 µM (≈ 33.7 µg/mL); MBC [6, 19]: 12.5 µM (≈ 33.7 µg/mL); MIC [7]: >100 µM; MIC [8, 18]: 3.12 µM (≈ 8.4 µg/mL); MBC [8, 19]: 3.12 µM (≈ 8.4 µg/mL); death of A549 cells (trypan blue exclusion) [9]: neither DMS-DA6-OH (net charge +2) nor DMS-DA6-NH2 (net charge +3) resulted in the death; MIC [10, 18]: 6.25 µM (≈ 16.8 µg/mL); MBC [10, 19]: 6.25 µM (≈ 16.8 µg/mL); intact peptide remaining: > 90%; peptide concentration at which the maximal absorption intensity (ONPG hydrolysis) after 240 minutes was reached [11]: 12.5 µM; MIC [12, 18]: 25 µM (≈ 67.3 µg/mL); MBC [12, 19]: 50 µM (≈ 135 µg/mL); MIC [13]: >100 µM; MIC [14]: >100 µM; MIC [15]: >100 µM; MIC [16, 18]: 25 µM (≈ 67.3 µg/mL); MBC [16, 19]: 25 µM (≈ 67.3 µg/mL); α-helix conformation ([17]; POPG LUVs): about 80%; α-helix conformation ([17]; pure zwitterionic POPC LUVs): 40%
